These results are taken from PubChem BioAssay AID342 (DTP/NCI, 2004).

The experiment has as its system Swiss mice, Sarcoma 180 sc, mean tumor weight T/C. Description: NCI In Vivo Anticancer Drug Screen. Data for tumor model Sarcoma 180 (subcutaneous) in Swiss mice. The following applies: endpoint: mean tumor weight, higher = larger tumour. The procedure, abridged: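 Mice bearing transplanted tumors were treated with compound, and survival or tumor size was measured. Values are expressed as the treated-group measurement (T) divided by the vehicle-treated control measurement (C).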

Where “and” joins values, the source holds several entries; their conditions need not be identical. Equal entries are not always repeated.

As for `O=C(Nc1ccc(C2=NCCN2)cc1)c1ccc(C(=O)Nc2ccc(C3=NCCN3)cc2)c(Cl)c1`, the T/C runs as follows: (dose: 18.0 mg/kg/injection, schedule: Q01DX007 (ip), vehicle: carboxymethylcellulose (CMC)) 88 % of control; (dose: 20.0 mg/kg/injection, schedule: Q01DX007 (ip), vehicle: water) 110 % of control; (dose: 37.0 mg/kg/injection, schedule: Q01DX007 (ip), vehicle: carboxymethylcellulose (CMC)) 96 % of control; (dose: 40.0 mg/kg/injection, schedule: Q01DX007 (ip), vehicle: water) 117 % of control.

Regarding `c1ncc2[nH]cnc2n1`, the T/C reads like this: (dose: 31.25 mg/kg/injection, schedule: Q#A X014 (ip), vehicle: carboxymethylcellulose (CMC)) 90 % of control; (dose: 31.31 mg/kg/injection, schedule: Q#A X014 (ip), vehicle: carboxymethylcellulose (CMC)) 108 % of control; (dose: 57.5 mg/kg/injection, schedule: Q01DX007 (ip), vehicle: carboxymethylcellulose (CMC)) 70 % of control; (dose: 62.5 mg/kg/injection, schedule: Q#A X014 (ip), vehicle: carboxymethylcellulose (CMC)) 120 % of control; (dose: 62.62 mg/kg/injection, schedule: Q#A X014 (ip), vehicle: carboxymethylcellulose (CMC)) 91 % of control; (dose: 76.65 mg/kg/injection, schedule: Q#A X014 (ip), vehicle: carboxymethylcellulose (CMC)) 120 % of control. The T/C is, setting by setting: (dose: 115.0 mg/kg/injection, schedule: Q01DX007 (ip), vehicle: carboxymethylcellulose (CMC)) 67 % of control; (dose: 115.0 mg/kg/injection, schedule: Q#A X014 (ip), vehicle: carboxymethylcellulose (CMC)) 93 % of control; (dose: 125.0 mg/kg/injection, schedule: Q#A X014 (ip), vehicle: carboxymethylcellulose (CMC)) 59 % of control; (dose: 125.25 mg/kg/injection, schedule: Q#A X014 (ip), vehicle: carboxymethylcellulose (CMC)) 66 % of control; (dose: 153.3 mg/kg/injection, schedule: Q#A X014 (ip), vehicle: carboxymethylcellulose (CMC)) 95 % of control; (dose: 196.4 mg/kg/injection, schedule: Q01DX007 (ip), vehicle: carboxymethylcellulose (CMC)) 88 % of control. Further, the T/C was 99 % of control (dose: 200.4 mg/kg/injection, schedule: Q01DX007 (ip), vehicle: carboxymethylcellulose (CMC)); 42 % of control (dose: 230.0 mg/kg/injection, schedule: Q01DX007 (ip), vehicle: carboxymethylcellulose (CMC)); 39 % of control (dose: 230.0 mg/kg/injection, schedule: Q#A X014 (ip), vehicle: carboxymethylcellulose (CMC)); 90 % of control (dose: 245.5 mg/kg/injection, schedule: Q01DX007 (ip), vehicle: carboxymethylcellulose (CMC)); 27 % of control (dose: 250.0 mg/kg/injection, schedule: Q#A X014 (ip), vehicle: carboxymethylcellulose (CMC)); 111 % of control (dose: 250.5 mg/kg/injection, schedule: Q01DX007 (ip), vehicle: carboxymethylcellulose (CMC)). Also, the T/C by setting is: (dose: 250.5 mg/kg/injection, schedule: Q#A X014 (ip), vehicle: carboxymethylcellulose (CMC)) 9 % of control; (dose: 327.3 mg/kg/injection, schedule: Q01DX007 (ip), vehicle: carboxymethylcellulose (CMC)) 44 % of control; (dose: 334.0 mg/kg/injection, schedule: Q01DX007 (ip), vehicle: carboxymethylcellulose (CMC)) 68 % of control; (dose: 460.0 mg/kg/injection, schedule: Q01DX007 (ip), vehicle: carboxymethylcellulose (CMC)) 13 % of control; (dose: 491.0 mg/kg/injection, schedule: Q01DX007 (ip), vehicle: carboxymethylcellulose (CMC)) 48 % of control; (dose: 501.0 mg/kg/injection, schedule: Q01DX007 (ip), vehicle: carboxymethylcellulose (CMC)) 12 % of control.

`CC(=O)OCC(=O)[C@@]1(O)CC[C@H]2[C@@H]3CCC4=CC(=O)C=C[C@]4(C)[C@@]3(F)[C@@H](O)C[C@@]21C`: the T/C (dose: 20.0 mg/kg/injection, schedule: Q#A X014 (sc), vehicle: steriod suspending solution) was 32 % of control; the T/C (dose: 30.0 mg/kg/injection, schedule: Q#A X014 (sc), vehicle: steriod suspending solution) was 32 % of control; the T/C (dose: 45.0 mg/kg/injection, schedule: Q#A X014 (sc), vehicle: steriod suspending solution) was 30 % of control; the T/C (dose: 67.5 mg/kg/injection, schedule: Q#A X014 (sc), vehicle: steriod suspending solution) is 24 % of control and 32 % of control.

Take `CC1=C2C(=C[C@@](C)(CO)[C@@H]2O)C(=O)[C@](C)(O)C12CC2`: the T/C (dose: 0.8 mg/kg/injection, schedule: Q01DX007 (ip), vehicle: saline) is 67 % of control and 78 % of control; the T/C (dose: 1.6 mg/kg/injection, schedule: Q01DX007 (ip), vehicle: saline) was 45 % of control.

`Nc1ncnc2nc[nH]c12`: the T/C reads like this: (dose: 25.0 mg/kg/injection, schedule: Q01DX007 (ip), vehicle: saline) 104 % of control; (dose: 50.0 mg/kg/injection, schedule: Q01DX007 (ip), vehicle: saline) 87 % of control; (dose: 100.0 mg/kg/injection, schedule: Q01DX007 (ip), vehicle: saline) 119 % of control; (dose: 200.0 mg/kg/injection, schedule: Q01DX007 (ip), vehicle: saline) 57 % of control.

For `O=C(O)c1c(-c2ccccc2)[nH]c2cc(Cl)ccc2c1=O`, the T/C (dose: 55.5 mg/kg/injection, schedule: Q01DX007 (ip), vehicle: carboxymethylcellulose (CMC)) is 87 % of control; the T/C (dose: 83.0 mg/kg/injection, schedule: Q01DX007 (ip), vehicle: carboxymethylcellulose (CMC)) is 51 % of control; the T/C (dose: 125.0 mg/kg/injection, schedule: Q01DX007 (ip), vehicle: carboxymethylcellulose (CMC)) is 25 % of control.

For `N=C(c1nsnc1N)N1CCCC1`, where the note is “dose: 125.0 mg/kg/injection, schedule: Q01DX007 (ip), vehicle: saline”, the T/C was 100 % of control.

`CCCCCCCCCCCCNCCCCCCCCCCCC`: the T/C is 107 % of control (dose: 2.5 mg/kg/injection, schedule: Q01DX007 (ip), vehicle: water); 54 % of control (dose: 5.0 mg/kg/injection, schedule: Q01DX007 (ip), vehicle: water); 60 % of control (dose: 7.5 mg/kg/injection, schedule: Q01DX007 (ip), vehicle: water); 44 % of control (dose: 10.0 mg/kg/injection, schedule: Q01DX007 (ip), vehicle: water).

Take `CCCCN(C)N=Nc1ccc(OCC(=O)OCC)cc1`: the T/C was 111 % of control (dose: 7.0 mg/kg/injection, schedule: Q01DX007 (ip), vehicle: saline); 93 % of control (dose: 10.0 mg/kg/injection, schedule: Q01DX007 (ip), vehicle: saline); 111 % of control (dose: 15.0 mg/kg/injection, schedule: Q01DX007 (ip), vehicle: saline); 95 % of control (dose: 23.0 mg/kg/injection, schedule: Q01DX007 (ip), vehicle: saline).

`COc1ccc2c(c1O)-c1c(OC)c(OC)cc3c1[C@H](C2)[N+](C)(C)CC3`: the T/C reads like this: (dose: 2.5 mg/kg/injection, schedule: Q01DX007 (ip), vehicle: saline) 108 % of control; (dose: 5.0 mg/kg/injection, schedule: Q01DX007 (ip), vehicle: saline) 100 % of control.

In the case of `COc1ccc2c(c1)CC[C@@H]1[C@@H]2CC[C@@]2(C)[C@H]1CC[C@@]2(O)C(F)=C(F)F`, the T/C runs as follows: (dose: 33.0 mg/kg/injection, schedule: Q01DX007 (sc), vehicle: steriod suspending solution) 52 % of control; (dose: 50.0 mg/kg/injection, schedule: Q01DX007 (sc), vehicle: steriod suspending solution) 46 % of control; (dose: 75.0 mg/kg/injection, schedule: Q01DX007 (sc), vehicle: steriod suspending solution) 44 % of control; (dose: 111.0 mg/kg/injection, schedule: Q01DX007 (sc), vehicle: steriod suspending solution) 45 % of control; (dose: 167.0 mg/kg/injection, schedule: Q01DX007 (sc), vehicle: steriod suspending solution) 37 % of control; (dose: 250.0 mg/kg/injection, schedule: Q01DX007 (sc), vehicle: steriod suspending solution) 50 % of control. In addition, for the setting “dose: 375.0 mg/kg/injection, schedule: Q01DX007 (sc), vehicle: steriod suspending solution”, the T/C is 55 % of control.

For the compound `Clc1ccc2c(c1)C(Br)c1cc(Cl)cc(Cl)c1-2` (stereo not given), the T/C (dose: 222.0 mg/kg/injection, schedule: Q01DX007 (ip), vehicle: other) was 66 % of control; the T/C (dose: 222.0 mg/kg/injection, schedule: Q01DX007 (ip), vehicle: saline) was 67 % of control; the T/C (dose: 333.0 mg/kg/injection, schedule: Q01DX007 (ip), vehicle: other) was 27 % of control; the T/C (dose: 333.0 mg/kg/injection, schedule: Q01DX007 (ip), vehicle: saline) was 32 % of control; the T/C (dose: 500.0 mg/kg/injection, schedule: Q01DX007 (ip), vehicle: other) was 30 % of control; the T/C (dose: 750.0 mg/kg/injection, schedule: Q01DX007 (ip), vehicle: other) is 21 % of control.
